Test results from patent US20210252015A1, “CERTAIN (2S)-N-[(1S)-1-CYANO-2-PHENYLETHYL]-1,4-OXAZEPANE-2-CARBOXAMIDES FOR TREATING INFLAMMATORY BOWEL DISEASE” (Insmed Incorporated, priority 2018, published 2021).

Experiments:
[1] = test system: colitis induced by the adoptive transfer of sorted naïve T cells into RAG2−/− mice; test: Adoptive T-Cell Transfer Colitis Model, Example 2 (survival, endoscopy, stool consistency, body weight); assay type: in vivo
Description: The efficacy of INS1007 in the treatment of colitis induced by the adoptive transfer of sorted naïve T cells into RAG2^−/− mice (“Adoptive T-Cell Transfer Colitis Model”) was evaluated. The Adoptive T-Cell Transfer Colitis Model is an immunological animal model of colitis that provides focused and detailed examination of T cell-mediated pathological mechanisms, and generally responds well to established clinical therapies such as anti-TNFα. The model is described in detail in D. V. Ostanin, et al., T cell transfer model of chronic colitis: concepts, considerations, and tricks of the trade. Am. J. Physiol. Gastrointest. Liver Physiol. 2009; 296(2): G135-46, which is hereby incorporated by reference in its entirety for all purposes.
Example 2 evaluated the effectiveness of INS1007 dosed at 0.3 mg/kg, 1.0 mg/kg, 3.0 mg/kg and 10 mg/kg in the Adoptive T-Cell Transfer Colitis Model. Vehicle (negative control) and an anti-p40 mAb antibody (positive control) were also evaluated.
Mice: Ninety-five (95) male RAG2^−/− mice (n=95) with an average starting body weight (±SEM) of 21.3±0.12 g were obtained from Taconic Biosciences (Germantown, N.Y.). Animals were acclimatized prior to study commencement. During this period, the animals were observed daily in order to reject any that presented in poor condition. Animals were fed with 5053 sterile rodent diet and water was provided ad libitum.
INS1007 Solutions: INS1007 was diluted with 0.5% Hydroxypropylmethylcellulose in Citrate buffer w/0.1% Tween 80 (pH 3.0). Solutions were stored at 4° C. INS1007 solutions were discarded after 3 days and fresh solutions were prepared.
Anti-p40 mAb solution: Anti-mouse IL-12 p40 (Clone: C17.8) obtained from BioXCell (Cat #: BE0051) was diluted with phosphate buffered saline. Solutions were stored at 4° C. Anti-mouse IL-12 p40 solutions were discarded after 7 days and fresh solutions were prepared.
Groups 1-2 were negative controls; groups 3-6 were treated with INS 1007 and Group 7 was treated with Anti-p40 mAb.
The study included two phases: a T-cell transfer colitis-induction period (T-cell engraftment in FIG. 14) and a treatment period (Veh/1007 TX in FIG. 14). Colitis was induced on Day 0 in 90 RAG2^−/− mice by IP injection (200 μL) of 0.5×10^6 CD44^−/CD62L^+ T-cells (in PBS) isolated and purified from C57Bl/6 […]. Donor cells were processed as follows. Whole spleens were excised from donor C57BL/6 mice and were immediately placed ice-cold PBS. The spleens were dissociated to yield a single cell suspension and the red blood cells were lysed. Spleens were then processed for CD4+ enrichment prior to CD44-CD62L^+ sorting using Miltenyi MACS columns.
Animals in Groups 1-6 were dosed via oral gavage (PO) twice daily (BID) from Days 14 to 41 with INS1007 Solution or vehicle, as indicated in Table 4. Animals in Group 7 were dosed via intraperitoneal (IP) injection once every third day (Q3D) from Day 14 to 39 with Anti-p40 mAb solution.
Animals were observed daily (weight morbidity, survival, presence of diarrhea and/or bloody stool) to assess differences among treatment groups and/or possible toxicity resulting from the treatments.
Each mouse, under isoflurane anesthesia, underwent video endoscopy on Days 14, 28, and 42 using a small animal endoscope (Karl Storz Endoskope, Germany), to assess colitis severity. During each endoscopic procedure, still images and video were recorded to evaluate the extent of colitis and the response to treatment. Colitis severity and Stool consistency were scored using the methods described in Examples 1 and 2. Following endoscopy on day 42, all animals from each treatment group were sacrificed. Following euthanasia, bone marrow (from both femurs and tibias) were collected, lysed, and then snap frozen. The frozen tissue was stored at −80° C.
Weight Loss: Weight loss calculated as a percentage of the starting weight on Day 0 was recorded in all treatment groups.

[2] = test system: DSS-induced colitis in C57BL/6 mice; test: DSS-induced colitis model, mean over animals of Examples 1A and 1B; assay type: in vivo; conditions: vs vehicle control
Description: Mean Endoscopy/Stool Consistency Scores and Mean Weight Change: The mean of the endoscopy and stool consistency scores from Days 10 and 14 observed from Examples 1A and 1B was determined to provide a mean endoscopy score and mean stool consistency score for Days 10 and 14 in the DSS-induced colitis model (i.e., mean that includes the animals from Examples 1A and 1B). FIGS. 11A and 12A show the Mean Endoscopy score. FIGS. 11B and 12B show the Mean Stool Consistency score.
The percent change in body weight on Day 14 from Examples 1A and 1B were averaged to provide mean percent body weight change for Day 14 in the DSS-induced colitis model (i.e., mean that includes the animals from Examples 1A and 1B).

[3] = Day 28, INS1007 1 mg/kg (Group 4)
[4] = Day 28, INS1007 3 mg/kg (Group 5)
[5] = Day 28, INS1007 10 mg/kg (Group 6)
[6] = Day 42, INS1007 1 mg/kg (Group 4)
[7] = Day 42, INS1007 3 mg/kg (Group 5)
[8] = Day 42, INS1007 10 mg/kg (Group 6)

## Cn1c(=O)oc2ccc(-c3ccc(C[C@@H](C#N)NC(=O)[C@@H]4CNCCCO4)cc3)cc21 [INS1007, (2S)—N-{(1S)-1-cyano-2-[4-(3-methyl-2-oxo-2,3-dihydro-1,3-benzoxazol-5-yl)phenyl]ethyl}-1,4-oxazepane-2-carboxamide]
[1]; Day 14, INS1007 3 mg/kg (Group 5)
  reduction in mean endoscopy score as compared to vehicle control (Group 2): 22.2%
[1]; [3]
  mean stool consistency score vs vehicle control (Group 2): reductions
  reduction in mean endoscopy score as compared to vehicle control (Group 2): 38.4%
[1]; [4]
  mean stool consistency score vs vehicle control (Group 2): reductions
  reduction in mean endoscopy score as compared to vehicle control (Group 2): 39.5%
[1]; [5]
  mean stool consistency score vs vehicle control (Group 2): reductions
  reduction in mean endoscopy score as compared to vehicle control (Group 2): 15.3%
[1]; [6]
  mean stool consistency score vs vehicle control (Group 2): reductions
  reduction in mean endoscopy score as compared to vehicle control (Group 2): 33.5%
[1]; [7]
  mean stool consistency score vs vehicle control (Group 2): reductions
  reduction in mean endoscopy score as compared to vehicle control (Group 2): 42.7%
[1]; [8]
  mean stool consistency score vs vehicle control (Group 2): largest reductions
  reduction in mean endoscopy score as compared to vehicle control (Group 2): 35.0%
[1]; INS1007 3 mg/kg (Group 5), Days 0 to 42
  weight loss compared to vehicle control (Group 2), body weight carried forward: reduced
[1]; INS1007 3 mg/kg (Group 5), log-rank test
  survival vs vehicle control: significantly improved
[1]; INS1007 3 mg/kg PO BID Day 14 to 41 (Group 5), Days 0 to 42, vehicle control 53.3%
  survival: 95.86%
[2]; Day 10, 0.3 mg/kg
  mean endoscopy score (Examples 1A and 1B): significantly reduced
  mean stool consistency score (Examples 1A and 1B): significantly reduced
[2]; Day 10, 3 mg/kg
  mean endoscopy score (Examples 1A and 1B): significantly reduced
[2]; Day 14, 0.3 mg/kg
  average mean endoscopy score (Examples 1A and 1B): significantly reduced
[2]; Day 14, 0.3 mg/kg, lost less weight
  average mean weight change (percent body weight change, Examples 1A and 1B): significantly reduced
[2]; Day 14, 3 mg/kg
  stool consistency score (Examples 1A and 1B): significantly reduced
